Measured values reported in US11248013B2, “Tricyclic inhibitors of poly(ADP-ribose)polymerase” (Rakovina Therapeutics Inc., priority 2011, dated 2022).

target: PARP-1 (Homo sapiens (Human), UniProt P09874); experiment: PARP-1 Enzyme Assay (HT Universal Colorimetric PARP Assay Kit); format: biochemical; settings: OD450, read-out: IC50 (PARP-1 inhibition)
Procedure: Inhibition of PARP-1 enzymatic activities was measured using an HT Universal Colorimetric PARP Assay Kit (Trevigen, catalogue #4677-096-K) following the standard procedures.
Serial dilutions of PARP compounds were added to appropriate wells. The compound was incubated with PARP enzyme at RT for 10 min, and the reaction was initiated by addition of the PARP substrate cocktail, Each concentration of compound was tested in triplicate wells. After 15 min reaction, the reaction was stopped, and the Strep-HRP was added into each well and incubated for 1 h at RT. After addition of TACS-Sapphire™ colorimetric substrate and incubated in dark for 15 min, the OD450 was read out with an EnVision instrument. IC50 values (the concentration at which 50% of the enzyme activity is inhibited) were calculated, which are determined over a range of different concentrations, normally from 10 μM to 0.1 nM.

PARP-1, sequence (P09874 whole entry): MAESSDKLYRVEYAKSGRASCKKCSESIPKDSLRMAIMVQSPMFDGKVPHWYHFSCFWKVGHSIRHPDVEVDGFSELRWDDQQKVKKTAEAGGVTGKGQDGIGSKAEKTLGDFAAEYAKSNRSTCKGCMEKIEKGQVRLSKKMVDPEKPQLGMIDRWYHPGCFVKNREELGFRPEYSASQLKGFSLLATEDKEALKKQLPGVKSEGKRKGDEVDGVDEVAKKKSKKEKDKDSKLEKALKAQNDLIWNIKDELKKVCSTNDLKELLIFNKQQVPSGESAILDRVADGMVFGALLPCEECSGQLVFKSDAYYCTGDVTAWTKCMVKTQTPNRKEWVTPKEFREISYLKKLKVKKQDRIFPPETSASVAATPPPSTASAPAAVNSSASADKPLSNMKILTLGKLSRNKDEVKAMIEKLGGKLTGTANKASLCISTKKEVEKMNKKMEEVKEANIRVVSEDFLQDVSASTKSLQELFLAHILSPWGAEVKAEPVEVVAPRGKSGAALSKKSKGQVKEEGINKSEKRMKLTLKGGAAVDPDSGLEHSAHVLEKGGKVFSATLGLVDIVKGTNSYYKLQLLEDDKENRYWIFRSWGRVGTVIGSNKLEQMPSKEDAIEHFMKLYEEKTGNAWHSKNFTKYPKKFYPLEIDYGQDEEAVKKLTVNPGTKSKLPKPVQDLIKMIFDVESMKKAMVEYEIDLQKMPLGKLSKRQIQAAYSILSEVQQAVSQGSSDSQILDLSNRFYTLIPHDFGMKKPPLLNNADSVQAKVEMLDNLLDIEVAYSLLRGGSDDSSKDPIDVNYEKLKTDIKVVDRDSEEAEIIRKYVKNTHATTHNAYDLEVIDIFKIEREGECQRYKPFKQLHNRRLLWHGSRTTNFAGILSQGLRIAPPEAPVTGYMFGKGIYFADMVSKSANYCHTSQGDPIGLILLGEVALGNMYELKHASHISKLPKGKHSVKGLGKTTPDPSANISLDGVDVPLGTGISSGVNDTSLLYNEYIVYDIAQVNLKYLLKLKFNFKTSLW

For “4-(3-(1-(3,3-dimethylbutanoyl)-4-oxido-1,4-azaphosphinan-4-yl)-4-fluorobenzyl)phthalazin-1(2H)-one [Example 5]”, which IC50 is on record?
Its IC50 is < 100 nM.

`CP1(=O)CCN(C(=O)c2cc(Cc3n[nH]c(=O)c4ccccc34)ccc2F)CC1` [Example 50, 4-[[4-fluoro-3-(4-methyl-4-oxo-1,4-azaphosphinane-1-carbonyl)phenyl]methyl]-2H-phthalazin-1-one] was tested. Which IC50 did it give?
Its IC50 is < 100 nM.

Which IC50 does the source give for `O=c1[nH]nc(Cc2ccc(F)c(P3(=O)CCN(c4cc(Cl)ncn4)CC3)c2)c2ccccc12` [Example 22, 4-(3-(1-(6-chloropyrimidin-4-yl)-4-oxido-1,4-azaphosphinan-4-yl)-4-fluorobenzyl)phthalazin-1(2H)-one] here?
The IC50 was < 100 nM.

For `O=c1[nH]nc(Cc2ccc(F)c(P3(=O)CCN(c4cccc(C(F)(F)F)n4)CC3)c2)c2ccccc12` [Example 31, 4-(4-fluoro-3-(4-oxido-1-(6-(trifluoromethyl)pyridin-2-yl)-1,4-azaphosphinan-4-yl)benzyl)phthalazin-1(2H)-one], which IC50 is on record?
The IC50 was 100 to 1000 nM.

How did the IC50 turn out when `O=c1[nH]nc(Cc2ccc(F)c(P3(=O)CCN(c4ncccn4)CC3)c2)c2ccc(F)cc12` [Example 56, 4-(4-fluoro-3-(4-oxido-1-(pyrimidin-2-yl)-1,4-azaphosphinan-4-yl)benzyl)-7-fluorophthalazin-1(2H)-one] was run?
The IC50 was < 100 nM.

`O=c1[nH]nc(Cc2ccc(F)c(P3(=O)CCN(c4ncnc5ccccc45)CC3)c2)c2ccccc12` [Example 21, 4-(4-fluoro-3-(4-oxido-1-(quinazolin-4-yl)-1,4-azaphosphinan-4-yl)benzyl)phthalazin-1(2H)-one] was tested. Which IC50 did it give?
The IC50 was < 100 nM.

Which IC50 does the source give for `O=c1[nH]nc(Cc2ccc(F)c(P3(=O)CCN(c4ccc(C(F)(F)F)cn4)CC3)c2)c2ccccc12` [Example 24, 4-(4-fluoro-3-(4-oxido-1-(5-(trifluoromethyl)pyridin-2-yl)-1,4-azaphosphinan-4-yl)benzyl)phthalazin-1(2H)-one] here?
The IC50 was < 100 nM.

How did the IC50 turn out when `CCCc1cnc(N2CCP(=O)(c3cc(Cc4n[nH]c(=O)c5ccccc45)ccc3F)CC2)nc1` [Example 37, 4-(4-fluoro-3-(4-oxido-1-(5-(n-propyl)pyrimidin-2-yl)-1,4-azaphosphinan-4-yl)benzyl)phthalazin-1(2H)-one] was run?
The IC50 was 100 to 1000 nM.

“4-(4-fluoro-3-(4-oxido-1-pivaloyl-1,4-azaphosphinan-4-yl)benzyl)phthalazin-1(2H)-one [Example 8]” was tested. Which IC50 did it give?
Its IC50 is < 100 nM.

`CC(C)N1CCP(=O)(c2cc(Cc3n[nH]c(=O)c4ccccc34)ccc2F)CC1` [Example 42, 4-(4-fluoro-3-(1-isopropyl-4-oxido-1,4-azaphosphinan-4-yl)benzyl)phthalazin-1(2H)-one] was tested. Which IC50 did it give?
The IC50 was < 100 nM.

Which IC50 does the source give for `O=c1[nH]nc(Cc2ccc(F)c(P3(=O)CCN(c4ncccc4F)CC3)c2)c2ccccc12` [Example 23, 4-(4-fluoro-3-(1-(3-fluoropyridin-2-yl)-4-oxido-1,4-azaphosphinan-4-yl)benzyl)phthalazin-1(2H)-one] here?
Its IC50 is < 100 nM.

Which IC50 does the source give for `CC(=O)c1cccnc1N1CCP(=O)(c2cc(Cc3n[nH]c(=O)c4ccccc34)ccc2F)CC1` [Example 34, 4-(4-fluoro-3-(4-oxido-1-(3-(acetyl)pyridin-2-yl)-1,4-azaphosphinan-4-yl)benzyl)phthalazin-1(2H)-one] here?
The IC50 was < 100 nM.

With `O=c1[nH]nc(Cc2ccc(F)c(P3(=O)CCN(c4nccc(Cl)n4)CC3)c2)c2ccccc12` [Example 18, 4-(3-(1-(4-chloropyrimidin-2-yl)-4-oxido-1,4-azaphosphinan-4-yl)-4-fluorobenzyl)phthalazin-1(2H)-one] as the molecule, how does the IC50 read?
Its IC50 is < 100 nM.

“4-(3-(1-(3-chloro-5-(trifluoromethyl)pyridin-2-yl)-4-oxido-1,4-azapbosphinan-4-yl)-4-fluorobenzyl)phthalazin-1(2H)-one [Example 20]” was tested. Which IC50 did it give?
The IC50 was 100 to 1000 nM.

`O=c1[nH]nc(Cc2ccc(F)c(P3(=O)CCN(C4CCC4)CC3)c2)c2ccccc12` [Example 39, 4-(3-(1-cyclobutyl-4-oxido-1,4-azaphosphinan-4-yl)-4-fluorobenzyl)phthalazin-1(2H)-one] was tested. Which IC50 did it give?
The IC50 was < 100 nM.

With `N#Cc1ccc(N2CCP(=O)(c3cc(Cc4n[nH]c(=O)c5ccccc45)ccc3F)CC2)cc1` [Example 15, 4-(4-(2-fluoro-5-((4-oxo-3,4-dihydrophthalazin-1-yl)methyl)phenyl)-4-oxido-1,4-azaphosphinan-1-yl)benzonitrile] as the molecule, how does the IC50 read?
Its IC50 is 1000 to 10000 nM.

With `CN(C)C(=O)N1CCP(=O)(c2cc(Cc3n[nH]c(=O)c4ccccc34)ccc2F)CC1` [Example 9, 4-(2-fluoro-5-((4-oxo-3,4-dihydrophthalazin-1-yl)methyl)phenyl)-N,N-dimethyl-1,4-azaphosphinane-1-carboxamide 4-oxide] as the molecule, how does the IC50 read?
Its IC50 is 100 to 1000 nM.

With `N#Cc1cccnc1N1CCP(=O)(c2cc(Cc3n[nH]c(=O)c4ccccc34)ccc2F)CC1` [Example 16, 2-(4-(2-fluoro-5-((4-oxo-3,4-dihydrophthalazin-1-yl)methyl)phenyl)-4-oxido-1,4-azaphosphinan-1-yl)nicotinonitrile] as the molecule, how does the IC50 read?
Its IC50 is < 100 nM.

How did the IC50 turn out when `O=c1[nH]nc(Cc2ccc(F)c(P3(=O)CCN(C4CC4)CC3)c2)c2ccc(F)cc12` [Example 54, 4-(3-(1-cyclopropyl-4-oxido-1,4-azaphosphinan-4-yl)-4-fluorobenzyl)-7-fluorophthalazin-1(2H)-one] was run?
Its IC50 is < 100 nM.

How did the IC50 turn out when `[2H]C([2H])(c1ccc(F)c(P2(=O)CCN(C3CC3)CC2)c1)c1n[nH]c(=O)c2cc(F)ccc12` [Example 55, 4-[(3-(1-cyclopropyl-4-oxido-1,4-azaphosphinan-4-yl)-4-fluorophenyl)dideuteromethyl]-7-fluorophthalazin-1 (2H)-one] was run?
The IC50 was < 100 nM.

For `O=c1[nH]nc(Cc2ccc(F)c(P3(=O)CCN(c4ccnc(Cl)n4)CC3)c2)c2ccccc12` [Example 17, 4-(3-(1-(2-chloropyrimidin-4-yl)-4-oxido-1,4-azaphosphinan-4-yl)-4-fluorobenzyl)phthalazin-1(2H)-one], which IC50 is on record?
Its IC50 is < 100 nM.

Which IC50 does the source give for `N#Cc1ccc(N2CCP(=O)(c3cc(Cc4n[nH]c(=O)c5ccccc45)ccc3F)CC2)nc1` [Example 14, 6-(4-(2-fluoro-5-((4-oxo-3,4-dihydrophthalazin-1-yl)methyl)phenyl)-4-oxido-1,4-azaphosphinan-1-yl)nicotinonitrile] here?
Its IC50 is < 100 nM.

`[2H]C([2H])(c1ccc(F)c(P2(=O)CCN(c3ncccn3)CC2)c1)c1n[nH]c(=O)c2cc(F)ccc12` [Example 57, 4-[(4-fluoro-3-(4-oxido-1-(pyrimidin-2-yl)-1,4-azaphosphinan-4-yl)phenyl)dideuteromethyl]-7-fluorophthalazin-1(2H)-one] was tested. Which IC50 did it give?
Its IC50 is < 100 nM.

With “(+)-4-[[4-fluoro-3-(4-oxido-1-(pyrimidin-2-yl)-1,4-azaphosphinan-4-yl)phenyl)](hydroxymethyl)]-7-fluorophthalazin-1(2H)-one [Example 59]” as the molecule, how does the IC50 read?
Its IC50 is < 100 nM.

Which IC50 does the source give for `CCN1CCP(=O)(c2cc(Cc3n[nH]c(=O)c4ccccc34)ccc2F)CC1` [Example 41, 4-(3-(1-ethyl-4-oxido-1,4-azaphosphinan-4-yl)-4-fluorobenzyl)phthalazin-1(2H)-one] here?
Its IC50 is < 100 nM.

Which IC50 does the source give for `O=c1[nH]nc(Cc2ccc(F)c(P3(=O)CCN(c4ncc5ccccc5n4)CC3)c2)c2ccccc12` [Example 30, 4-(4-fluoro-3-(4-oxido-1-(quinazolin-2-yl)-1,4-azaphosphinan-4-yl)benzyl)phthalazin-1(2H)-one] here?
Its IC50 is < 100 nM.
